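Tested at 5 concentrations; 48 h exposure; 96-well plates; endpoints linearly interpolated, else capped at highest concentration. GI50 is the concentration that inhibits growth by half. At the TGI there is no net growth.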
Experiments:
Assay in all cases: growth of human tumour cells (NCI), 48 h
SN12C renal = tested on: SN12C renal
SF-295 CNS = tested on: SF-295 CNS
LOX IMVI melanoma = tested on: LOX IMVI melanoma
IGROV1 ovarian = tested on: IGROV1 ovarian
TK-10 renal = tested on: TK-10 renal
UO-31 renal = tested on: UO-31 renal
MCF7 breast = tested on: MCF7 breast
SK-MEL-5 melanoma = tested on: SK-MEL-5 melanoma
SNB-19 CNS = tested on: SNB-19 CNS
HOP-62 NSCLC = tested on: HOP-62 NSCLC
SK-MEL-28 melanoma = tested on: SK-MEL-28 melanoma
OVCAR-8 ovarian = tested on: OVCAR-8 ovarian
M14 melanoma = tested on: M14 melanoma
RXF 393 renal = tested on: RXF 393 renal
T-47D breast = tested on: T-47D breast
PC-3 prostate = tested on: PC-3 prostate
HT29 colon = tested on: HT29 colon
EKVX NSCLC = tested on: EKVX NSCLC
OVCAR-4 ovarian = tested on: OVCAR-4 ovarian
BT-549 breast = tested on: BT-549 breast
CCRF-CEM leukemia = tested on: CCRF-CEM leukemia
KM12 colon = tested on: KM12 colon
UACC-62 melanoma = tested on: UACC-62 melanoma
K-562 leukemia = tested on: K-562 leukemia
RPMI-8226 leukemia = tested on: RPMI-8226 leukemia
HOP-92 NSCLC = tested on: HOP-92 NSCLC
SK-OV-3 ovarian = tested on: SK-OV-3 ovarian
OVCAR-5 ovarian = tested on: OVCAR-5 ovarian
HS 578T breast = tested on: HS 578T breast
OVCAR-3 ovarian = tested on: OVCAR-3 ovarian
HL-60(TB) leukemia = tested on: HL-60(TB) leukemia
HCT-116 colon = tested on: HCT-116 colon
SF-268 CNS = tested on: SF-268 CNS
SW-620 colon = tested on: SW-620 colon
SNB-75 CNS = tested on: SNB-75 CNS
NCI-H23 lung = tested on: NCI-H23 lung
HCT-15 colon = tested on: HCT-15 colon
786-0 renal = tested on: 786-0 renal
NCI-H226 lung = tested on: NCI-H226 lung
SK-MEL-2 melanoma = tested on: SK-MEL-2 melanoma
A498 renal = tested on: A498 renal
MALME-3M melanoma = tested on: MALME-3M melanoma
DU-145 prostate = tested on: DU-145 prostate
A549 NSCLC = tested on: A549 NSCLC
ACHN renal = tested on: ACHN renal
MDA-MB-435 = tested on: MDA-MB-435
MOLT-4 leukemia = tested on: MOLT-4 leukemia
CAKI-1 renal = tested on: CAKI-1 renal
NCI-H522 lung = tested on: NCI-H522 lung
HCC-2998 colon = tested on: HCC-2998 colon
NCI-H460 lung = tested on: NCI-H460 lung
U251 CNS = tested on: U251 CNS
NCI/ADR-RES ovarian = tested on: NCI/ADR-RES ovarian
SF-539 CNS = tested on: SF-539 CNS
COLO 205 colon = tested on: COLO 205 colon
SR leukemia = tested on: SR leukemia
MDA-MB-231 breast = tested on: MDA-MB-231 breast

With `COc1cccc(N2CC(O)=C(c3nc4ccccc4s3)C2=N)c1` the GI50 (SN12C renal) was 0.379 µM, the TGI (SN12C renal) was 5.63 µM and the GI50 (SF-295 CNS) was 0.0744 µM. It also gave a TGI (SF-295 CNS) of 6.09 µM, a GI50 (LOX IMVI melanoma) of 0.459 µM and a TGI (LOX IMVI melanoma) of over 100 µM. The GI50 (IGROV1 ovarian) was 0.277 µM, the TGI (IGROV1 ovarian) was over 75.6 µM and the GI50 (TK-10 renal) was 3.24 µM. For the same compound, the TGI (TK-10 renal) was 70.2 µM, the GI50 (UO-31 renal) was 0.717 µM and the TGI (UO-31 renal) was over 70.3 µM. It also gave a GI50 (MCF7 breast) of 0.289 µM, a TGI (MCF7 breast) of over 100 µM and a GI50 (SK-MEL-5 melanoma) of 0.211 µM. For the same compound, the TGI (SK-MEL-5 melanoma) was 23 µM, the GI50 (SNB-19 CNS) was 0.702 µM and the TGI (SNB-19 CNS) was over 100 µM. It also gave a GI50 (HOP-62 NSCLC) of 0.56 µM, a TGI (HOP-62 NSCLC) of 23.4 µM and a GI50 (SK-MEL-28 melanoma) of 0.468 µM. The TGI (SK-MEL-28 melanoma) was over 65 µM, the GI50 (OVCAR-8 ovarian) was 0.838 µM and the TGI (OVCAR-8 ovarian) was 65.9 µM. It also gave a GI50 (M14 melanoma) of 0.35 µM, a TGI (M14 melanoma) of 48.8 µM and a GI50 (RXF 393 renal) of 0.488 µM. The TGI (RXF 393 renal) was 45.1 µM, the GI50 (T-47D breast) was 46.5 µM and the TGI (T-47D breast) was over 100 µM. It also gave a GI50 (PC-3 prostate) of 0.32 µM, a TGI (PC-3 prostate) of over 100 µM and a GI50 (HT29 colon) of 0.252 µM. For the same compound, the TGI (HT29 colon) was over 39.3 µM, the GI50 (EKVX NSCLC) was 9.24 µM and the TGI (EKVX NSCLC) was over 100 µM. It also gave a GI50 (OVCAR-4 ovarian) of 6.19 µM, a TGI (OVCAR-4 ovarian) of over 100 µM and a GI50 (BT-549 breast) of 0.726 µM. For the same compound, the TGI (BT-549 breast) was over 100 µM, the GI50 (CCRF-CEM leukemia) was 0.243 µM and the TGI (CCRF-CEM leukemia) was over 100 µM. It also gave a GI50 (KM12 colon) of 0.234 µM, a TGI (KM12 colon) of over 100 µM and a GI50 (UACC-62 melanoma) of 0.239 µM. The TGI (UACC-62 melanoma) was 2.61 µM, the GI50 (K-562 leukemia) was under 0.0204 µM and the TGI (K-562 leukemia) was over 100 µM. It also gave a TGI (RPMI-8226 leukemia) of over 100 µM, a GI50 (HOP-92 NSCLC) of 3.99 µM and a TGI (HOP-92 NSCLC) of over 57.2 µM. It also gave a GI50 (SK-OV-3 ovarian) of 0.702 µM, a TGI (SK-OV-3 ovarian) of 33.5 µM and a TGI (OVCAR-5 ovarian) of over 95 µM. For the same compound, the GI50 (HS 578T breast) was 0.47 µM, the TGI (HS 578T breast) was over 44.7 µM and the GI50 (OVCAR-3 ovarian) was 0.269 µM. The TGI (OVCAR-3 ovarian) was 0.82 µM, the GI50 (HL-60(TB) leukemia) was 0.26 µM and the TGI (HL-60(TB) leukemia) was over 100 µM. The GI50 (HCT-116 colon) was 0.35 µM, the TGI (HCT-116 colon) was over 47.2 µM and the GI50 (SF-268 CNS) was 1.51 µM. The TGI (SF-268 CNS) was over 94.5 µM, the GI50 (SW-620 colon) was 0.341 µM and the TGI (SW-620 colon) was over 100 µM. For the same compound, the TGI (SNB-75 CNS) was 1.98 µM, the GI50 (NCI-H23 lung) was 0.652 µM and the TGI (NCI-H23 lung) was over 25.2 µM. For the same compound, the GI50 (HCT-15 colon) was 0.09 µM, the TGI (HCT-15 colon) was 31.2 µM and the GI50 (786-0 renal) was 0.363 µM. It also gave a TGI (786-0 renal) of 37.1 µM, a GI50 (NCI-H226 lung) of 7.21 µM and a TGI (NCI-H226 lung) of over 100 µM. It also gave a GI50 (SK-MEL-2 melanoma) of 7.14 µM, a TGI (SK-MEL-2 melanoma) of over 100 µM and a GI50 (A498 renal) of 0.33 µM. It also gave a TGI (A498 renal) of 20 µM, a GI50 (MALME-3M melanoma) of 0.266 µM and a TGI (MALME-3M melanoma) of over 100 µM. For the same compound, the GI50 (DU-145 prostate) was 1.75 µM, the TGI (DU-145 prostate) was over 100 µM and the GI50 (A549 NSCLC) was 0.656 µM. The TGI (A549 NSCLC) was over 56.6 µM, the GI50 (ACHN renal) was 0.307 µM and the TGI (ACHN renal) was over 60.2 µM. The GI50 (MDA-MB-435) was 0.0478 µM, the TGI (MDA-MB-435) was 0.362 µM and the GI50 (MOLT-4 leukemia) was 0.166 µM. The TGI (MOLT-4 leukemia) was over 100 µM, the GI50 (CAKI-1 renal) was 0.11 µM and the TGI (CAKI-1 renal) was over 100 µM. For the same compound, the GI50 (NCI-H522 lung) was 0.0588 µM, the GI50 (HCC-2998 colon) was 0.23 µM and the TGI (HCC-2998 colon) was 3.57 µM. For the same compound, the GI50 (NCI-H460 lung) was 0.24 µM, the TGI (NCI-H460 lung) was over 100 µM and the GI50 (U251 CNS) was 0.42 µM. The TGI (U251 CNS) was 19.5 µM, the GI50 (NCI/ADR-RES ovarian) was 0.286 µM and the TGI (NCI/ADR-RES ovarian) was over 23.2 µM. It also gave a GI50 (SF-539 CNS) of 0.451 µM, a TGI (SF-539 CNS) of 26.6 µM and a GI50 (COLO 205 colon) of 0.472 µM. The TGI (COLO 205 colon) was over 100 µM, the TGI (SR leukemia) was over 100 µM and the GI50 (MDA-MB-231 breast) was 0.359 µM. The TGI (MDA-MB-231 breast) was 3.42 µM.
